Results published in patent publication US11779600B2, “Methods of treating or preventing alzheimer's disease and associated conditions” (CEDARS-SINAI MEDICAL CENTER, priority 2016, dated 2023).

How the values were obtained:
Assay type in all cases: cell-based, mouse
[1] = test system: primary cortical neurons (CN); assay: Synaptic toxicity of Aβ1-42 assemblies in primary cortical neurons; settings: for reduction in co-localized VGluT1/PSD95+ puncta number: 250 nM Aβ assemblies, 12 hours, vs CN in medium alone (FIG. 1D); for decrease of co-localized VGluT1/PSD95+ puncta synaptic number: overnight exposure (FIG. 2E)
Protocol: Initially, synaptic toxicity induced by stable, structurally defined fAβ1-42 and oAβ1-42 forms in primary cortical neurons (CN) was tested. Neurons were incubated for 12 hours with 250 nM of Aβ assemblies or with medium only (vehicle) during day 8 of culture. An extensive loss of pre- and post-synaptic (VGluT1 & PSD-95, respectively) area and number, induced by both f/oAβ1-42 forms, was clearly detected (FIG. 1A-C). Synaptic density quantification indicated a significant 50% reduction in co-localized VGluT1/PSD95^+ puncta number following fAβ1-42. Moreover, we detected a 70% decrease in puncta number by oAβ1-42 when compared with CN in medium alone (FIG. 1D; p<0.0001). […] Next, Aβ-induced neuritic retraction was assessed. CN were immunolabeled with anti-Tuj1 and the total neuritic length per neuron was precisely quantified (FIG. 2A-D). Overnight incubation of f/oAβ1-42 led to a massive neuritic retraction compared with control CN group (FIG. 2B vs. 2A). Whether untreated- and GA-treated BM-derived MΦ (CD68^+ cells) could prevent synaptic and neuritic loss was tested next. Primary CN and MΦ were co-cultured for 48 h and introduced Aβ1-42 forms during the last 12 hours of co-culture. […] Quantitative analysis of co-localized VGluT1/PSD95^+ puncta synaptic number confirmed decreases of 32% and 65% after overnight exposure to fAβ1-42 or oAβ1-42, respectively (FIG. 2E). […] The in vivo effects of Aβ accumulation on synaptopathy and possible synaptic rescue by GA immunization or grafted BM-CD115^+ Mo was assessed. Pre- and post-synaptic alterations in coronal brain sections of 13m old AD^+(ADtg) mice that received these immune-modulation interventions were quantified (FIG. 3A-D). High magnification z-stack images obtained from 19 predefined areas in hippocampus and entorhinal cortex were captured in respective Bregma regions (FIG. 3A-D).
P1 neurons are prepared as previously reported. Briefly, cortical neurons (CN) are obtained from 1 day old neonatal mice, dissociated, resuspended and plated in 24-well culture plate at 5×10^4/ml cells. BM-MΦ are obtained as described herein. In short, mononuclear enriched BM-derived cells are isolated from C57BL/6 mice and differentiated into MΦ for 7 days. […] Cultures are processed for quantification of synaptic density and neuritic length. […] Microphotographs are shot using a Carl Zeiss ApoTome-equipped Axio Imager ZI fluorescence microscope. Synaptic puncta number and synaptic immunoreactive area are quantified with Puncta Analyzer. Total neurite length is measured using NeuriteTracer. At least 3 coverslips, 36 images and 150 neurons for each condition are analyzed. Average puncta number, synaptic area per image or per neuron will be calculated. […] In brief, on day 9 of culture, spontaneous network activity of CN is recorded for 60 min to gain baseline. […]

[2] = test system: bone marrow-derived macrophages (MΦ^BM); assay: Fibrillar Aβ1-42 phagocytosis assay in bone marrow-derived macrophages; settings: 24 hours treatment, then fAβ1-42 for 30 min; quantitative ICC (FIG. 16E)
Protocol: Lyophilized non-fluoro amyloid-β1-42 peptide (#20276; Anaspec) was initially monomerized by dissolving it in ice-cold HFIP (hexafluoroisopropanol) (#52512; Sigma) to a final concentration of 1 mM and then aliquoted in sterile siliconized microcentrifuge tubes. The HFIP was first evaporated while in the sterile hood and then under vacuum conditions in a SpeedVac for 2 h to remove any trace of HFIP; the peptide film was stored at −20° C. until use. To induce fibril formation, fluoro (HiLyte647; #64161; Anaspec) and non-fluoro amyloid-β1-42 films were resuspended in media to which 10% of sterile NaOH 60 mM was first added and the media were vortexed for 30 s. Then, a sterile 45% H2O and a sterile 45% solution of 20 mM NaH2PO4+Na2HPO4 (pH 7.4) were added, and the media were vortexed again and incubated on a shaker for 2 weeks at 37° C. Pre-formed amyloid-β1-42 fibrils were then sonicated for 60 s and diluted to 100 nM using the same media prior to the phagocytosis assay.
To test amyloid-β phagocytosis by macrophage, in repeated experiments monocytes were isolated from the bone marrow of wild-type mice (n=18 mice) and differentiated into macro-phage by 7-day cultivation in complete RPMI-1640 medium (#21870; Life Technologies) with 10% serum and 20 ng/ml MCSF (#315-02; PeproTech). Bone marrow-derived macrophages (MΦBM) were generated from femurs and tibiae cultured for 6-7 days in complete RPMI 1640 medium (Life Technologies) with 10% FBS, 100 U/ml penicillin, 100 μg/ml streptomycin, 2 mM L-glutamine and 20 ng/ml MCSF (PeproTech). Primary cultures of macrophage were then plated at 1.2×10^5 cells per well (3-4 wells for each condition) in 24-well tissue-culture plates on glass cover-slips overnight. Next, macrophages were either treated with 30 μg/ml GA (Copaxone®; TEVA Neuroscience), Brefeldin A (BFA; Sigma, 1X), or 10 μM Minocycline (Sigma) for the duration of 1, 3, or 24 h, or not treated (control group). Before addition of fibrillar amyloid-β1-42, the cells were chilled in a 4° C. ice bath for 5 min; immediately after addition of the preformed fibrillar amyloid-β1-42 (100 nM), the plates were centrifuged at 515g in 25° C. followed by incubation at 37° C. for 30 or 60 min. The cells were then rinsed with amyloid-β-free medium to remove non-incorporated amyloid-β and later washed twice with PBS. Methanol (99.8%) at −20° C. for 20 min or 4% paraformaldehyde at room temperature for 12 min was used for fixation of the cells followed by repeated washes with PBS. […] The fluorescent signal and its total area were determined and quantified by the conversion of individual images to greyscale and standardizing to baseline using histogram-based thresholds with NIH ImageJ software. […]

[3] = test system: iNOS; assay: iNOS expression in macrophages by quantitative ICC; settings: 24 hours treatment, then fAβ1-42 for 30 min; quantitative ICC (FIG. 16D)
Protocol: To test amyloid-β phagocytosis by macrophage, in repeated experiments monocytes were isolated from the bone marrow of wild-type mice (n=18 mice) and differentiated into macro-phage by 7-day cultivation in complete RPMI-1640 medium (#21870; Life Technologies) with 10% serum and 20 ng/ml MCSF (#315-02; PeproTech). Bone marrow-derived macrophages (MΦBM) were generated from femurs and tibiae cultured for 6-7 days in complete RPMI 1640 medium (Life Technologies) with 10% FBS, 100 U/ml penicillin, 100 μg/ml streptomycin, 2 mM L-glutamine and 20 ng/ml MCSF (PeproTech). Primary cultures of macrophage were then plated at 1.2×10^5 cells per well (3-4 wells for each condition) in 24-well tissue-culture plates on glass cover-slips overnight. […] The fluorescent signal and its total area were determined and quantified by the conversion of individual images to greyscale and standardizing to baseline using histogram-based thresholds with NIH ImageJ software. […]
The expression of inducible nitric oxide synthase (iNOS), a hallmark of the proinflammatory M1 macrophage phenotype, in different treatment groups was assessed next (FIG. 16C-16D). […] Quantitative ICC assays confirmed a significant ˜1.3-fold increase in iNOS expression by minocycline-treated macrophages, and a substantial 48% reduction in Aβ^1-42 phagocytosis. […]

Row | Compound | reduction in co-localized VGluT1/PSD95+ puncta number [1] | decrease of co-localized VGluT1/PSD95+ puncta synaptic number [1] | reduction in Aβ1-42 phagocytosis [2] | increase in iNOS expression [3]
1 | fAβ1-42: pre-formed fibrils of amyloid-β1-42 peptide | 50% | 32% | – | –
2 | oAβ1-42: stabilized oligomeric amyloid-β1-42 assemblies | 70% | 65% | – | –
3 | CN(C)c1ccc(O)c2c1C[C@H]1C[C@H]3[C@H](N(C)C)C(O)=C(C(N)=O)C(=O)[C@@]3(O)C(O)=C1C2=O [minocycline, Minocycline] | – | – | 48% | ~1.3 fold
